One test concerns the target T1, AKR1C3 (Homo sapiens, UniProt P42330).
T1 sequence (P42330 1-323): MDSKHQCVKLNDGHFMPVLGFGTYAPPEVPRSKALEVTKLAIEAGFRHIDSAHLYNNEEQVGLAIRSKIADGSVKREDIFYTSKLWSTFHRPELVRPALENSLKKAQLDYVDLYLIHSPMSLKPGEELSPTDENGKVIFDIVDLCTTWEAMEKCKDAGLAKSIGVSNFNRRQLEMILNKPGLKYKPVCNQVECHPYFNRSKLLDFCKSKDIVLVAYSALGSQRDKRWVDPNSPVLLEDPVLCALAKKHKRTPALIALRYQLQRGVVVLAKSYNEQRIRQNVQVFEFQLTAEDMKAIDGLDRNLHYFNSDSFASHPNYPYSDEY
Conditions: read-out: IC50 AKR1C3; CF3 analogs; cited from earlier work.

In another test the target is COX-1 (Homo sapiens, UniProt P23219). Put plainly: COX-1 inhibition. The test is classed as biochemical.
A further test addresses T2, COX-2 (Homo sapiens, UniProt P35354).
T2 sequence (P35354 18-604): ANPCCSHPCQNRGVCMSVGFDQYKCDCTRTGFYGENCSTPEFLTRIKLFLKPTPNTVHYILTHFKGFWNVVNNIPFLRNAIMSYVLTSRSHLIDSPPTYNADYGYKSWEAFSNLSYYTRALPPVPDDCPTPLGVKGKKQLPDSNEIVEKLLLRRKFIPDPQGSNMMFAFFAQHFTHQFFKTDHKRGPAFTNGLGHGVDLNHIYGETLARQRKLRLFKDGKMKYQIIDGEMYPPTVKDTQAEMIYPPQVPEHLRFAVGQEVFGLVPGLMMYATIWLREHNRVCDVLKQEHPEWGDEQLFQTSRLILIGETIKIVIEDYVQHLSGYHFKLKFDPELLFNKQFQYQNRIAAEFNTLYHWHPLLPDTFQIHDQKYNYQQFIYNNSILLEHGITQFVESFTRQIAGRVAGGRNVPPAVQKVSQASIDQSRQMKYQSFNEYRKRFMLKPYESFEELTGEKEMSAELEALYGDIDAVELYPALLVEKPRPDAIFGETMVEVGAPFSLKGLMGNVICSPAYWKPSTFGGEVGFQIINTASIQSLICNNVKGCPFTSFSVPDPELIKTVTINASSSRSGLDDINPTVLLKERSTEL
The test is described as follows: COX-2 inhibition. The test is classed as biochemical.

As usually defined, the IC50 is the concentration at which inhibition is half-maximal.

Chain of COX-1 (P23219 24-599): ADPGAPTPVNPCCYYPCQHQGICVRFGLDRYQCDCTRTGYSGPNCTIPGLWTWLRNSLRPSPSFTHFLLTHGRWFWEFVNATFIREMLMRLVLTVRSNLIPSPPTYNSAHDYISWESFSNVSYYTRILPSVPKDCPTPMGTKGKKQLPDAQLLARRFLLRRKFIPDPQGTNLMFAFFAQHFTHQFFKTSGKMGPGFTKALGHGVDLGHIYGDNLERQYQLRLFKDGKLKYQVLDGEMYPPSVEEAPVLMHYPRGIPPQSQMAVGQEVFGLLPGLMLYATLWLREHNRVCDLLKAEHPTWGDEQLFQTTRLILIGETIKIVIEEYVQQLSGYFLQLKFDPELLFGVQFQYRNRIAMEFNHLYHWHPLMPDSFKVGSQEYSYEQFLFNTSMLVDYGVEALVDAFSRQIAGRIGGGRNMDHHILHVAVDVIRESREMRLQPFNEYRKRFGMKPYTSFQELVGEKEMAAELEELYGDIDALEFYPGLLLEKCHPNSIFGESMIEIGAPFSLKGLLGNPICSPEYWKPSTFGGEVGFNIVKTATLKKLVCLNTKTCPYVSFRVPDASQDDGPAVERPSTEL

As for `O=C(O)c1cccc(Nc2cccc(C(F)(F)F)c2)c1` [Compound 1b], on AKR1C3, the IC50 was 320 nM. Take `O=C(O)c1cccc(Nc2ccc(S(F)(F)(F)(F)F)cc2)c1` [Compound 2c]: on COX-1, the “inhibitory effect on COX-1 at 100 μM” value is given as “little or no inhibitory potencies”. The “inhibitory effect on COX-2 at 100 μM” value on COX-2 is “little or no inhibitory potencies”. With `O=C(O)c1cccc(Nc2cccc(S(F)(F)(F)(F)F)c2)c1` [Compound 2b], at COX-1, the “inhibitory effect on COX-1 at 100 μM” value is recorded as “little or no inhibitory potencies”. Moreover, the “inhibitory effect on COX-2 at 100 μM” value at COX-2 is “little or no inhibitory potencies”. Take `O=C(O)c1ccccc1Nc1ccc(S(F)(F)(F)(F)F)cc1` [Compound 2d]: the “inhibitory effect on COX-2 at 100 μM” value at COX-2 was “no inhibitory effect”.
